Data published in the NIST ThermoML archive (doi:10.1016/j.jct.2016.03.030).
Numbers after ± are expanded uncertainties. Values belong to the compound of their own block, whether it stands above or below them.

Tests used:
[1] = xn = mol fraction of the nth substance listed; conditions: 100 kPa, Liquid, x2 = 0; for viscosity: Falling or rolling sphere viscometry; for mass density: Vibrating tube method
[2] = Molar enthalpy of transition or fusion; conditions: DSC
[3] = for viscosity: 100 kPa, Liquid, Falling or rolling sphere viscometry

SMILES: O [water] + CCC[N+]1(C)CCOCC1.[Br-]
- viscosity ([1]; 298.15 K): 0.912 ± 0.091 mPa·s
- viscosity ([1]; 303.15 K): 0.819 ± 0.082 mPa·s
- viscosity ([1]; 308.15 K): 0.739 ± 0.074 mPa·s
- viscosity ([1]; 313.15 K): 0.671 ± 0.067 mPa·s
- viscosity ([1]; 318.15 K): 0.611 ± 0.061 mPa·s
- mass density ([1]; 318.15 K): 990.1 ± 1 kg/m3
- viscosity ([1]; 323.15 K): 0.559 ± 0.056 mPa·s
- mass density ([1]; 323.15 K): 987.9 ± 1 kg/m3
- viscosity ([1]; 328.15 K): 0.514 ± 0.052 mPa·s
- mass density ([1]; 328.15 K): 985.6 ± 1 kg/m3
- viscosity ([1]; 333.15 K): 0.474 ± 0.048 mPa·s
- mass density ([1]; 333.15 K): 983.2 ± 1 kg/m3
- viscosity ([1]; 338.15 K): 0.439 ± 0.044 mPa·s
- mass density ([1]; 338.15 K): 980.3 ± 1 kg/m3
- viscosity ([1]; 343.15 K): 0.408 ± 0.041 mPa·s
- mass density ([1]; 343.15 K): 978.1 ± 1 kg/m3

SMILES: O [water] + CCCCC[N+]1(C)CCOCC1.[Br-]
- viscosity ([1]; 298.15 K): 0.912 ± 0.091 mPa·s
- viscosity ([1]; 303.15 K): 0.819 ± 0.082 mPa·s
- viscosity ([1]; 308.15 K): 0.739 ± 0.074 mPa·s
- viscosity ([1]; 313.15 K): 0.671 ± 0.067 mPa·s
- viscosity ([1]; 318.15 K): 0.611 ± 0.061 mPa·s
- mass density ([1]; 318.15 K): 990.1 ± 1 kg/m3
- viscosity ([1]; 323.15 K): 0.559 ± 0.056 mPa·s
- mass density ([1]; 323.15 K): 987.9 ± 1 kg/m3
- viscosity ([1]; 328.15 K): 0.514 ± 0.052 mPa·s
- mass density ([1]; 328.15 K): 985.6 ± 1 kg/m3
- viscosity ([1]; 333.15 K): 0.474 ± 0.048 mPa·s
- mass density ([1]; 333.15 K): 983.2 ± 1 kg/m3
- viscosity ([1]; 338.15 K): 0.439 ± 0.044 mPa·s
- mass density ([1]; 338.15 K): 980.3 ± 1 kg/m3
- viscosity ([1]; 343.15 K): 0.408 ± 0.041 mPa·s
- mass density ([1]; 343.15 K): 978.1 ± 1 kg/m3

SMILES: CCCCC[N+]1(C)CCCCC1.[Br-] [1-methyl-1-pentylpiperidinium bromide]
- Molar enthalpy of transition or fusion ([2]; Crystal 1): 2.11 ± 0.263 kcal/mol
- Normal melting temperature ([3]; Crystal 1, DTA): 173.7 ± 0.41 °C

SMILES: O [water] + CCCC[N+]1(C)CCOCC1.[Br-]
- viscosity ([1]; 298.15 K): 0.912 ± 0.091 mPa·s
- viscosity ([1]; 303.15 K): 0.819 ± 0.082 mPa·s
- viscosity ([1]; 308.15 K): 0.739 ± 0.074 mPa·s
- viscosity ([1]; 313.15 K): 0.671 ± 0.067 mPa·s
- viscosity ([1]; 318.15 K): 0.611 ± 0.061 mPa·s
- mass density ([1]; 318.15 K): 990.1 ± 1 kg/m3
- viscosity ([1]; 323.15 K): 0.559 ± 0.056 mPa·s
- mass density ([1]; 323.15 K): 987.9 ± 1 kg/m3
- viscosity ([1]; 328.15 K): 0.514 ± 0.052 mPa·s
- mass density ([1]; 328.15 K): 985.6 ± 1 kg/m3
- viscosity ([1]; 333.15 K): 0.474 ± 0.048 mPa·s
- mass density ([1]; 333.15 K): 983.2 ± 1 kg/m3
- viscosity ([1]; 338.15 K): 0.439 ± 0.044 mPa·s
- mass density ([1]; 338.15 K): 980.3 ± 1 kg/m3
- viscosity ([1]; 343.15 K): 0.408 ± 0.041 mPa·s
- mass density ([1]; 343.15 K): 978.1 ± 1 kg/m3

SMILES: O [water]
- viscosity ([3]; 298.15 K): 0.912 ± 0.091 mPa·s
- viscosity ([3]; 303.15 K): 0.819 ± 0.082 mPa·s
- viscosity ([3]; 308.15 K): 0.739 ± 0.074 mPa·s
- viscosity ([3]; 313.15 K): 0.671 ± 0.067 mPa·s
- viscosity ([3]; 318.15 K): 0.611 ± 0.061 mPa·s
- viscosity ([3]; 323.15 K): 0.559 ± 0.056 mPa·s
- viscosity ([3]; 328.15 K): 0.514 ± 0.052 mPa·s
- viscosity ([3]; 333.15 K): 0.474 ± 0.048 mPa·s
- viscosity ([3]; 338.15 K): 0.439 ± 0.044 mPa·s
- viscosity ([3]; 343.15 K): 0.408 ± 0.041 mPa·s
- Normal melting temperature ([3]; Crystal, visual observation): 0.00 ± 0.39 °C

SMILES: O [water] + CCCCC[N+]1(C)CCCCC1.[Br-]
- viscosity ([1]; 298.15 K): 0.912 ± 0.091 mPa·s
- viscosity ([1]; 303.15 K): 0.819 ± 0.082 mPa·s
- viscosity ([1]; 308.15 K): 0.739 ± 0.074 mPa·s
- viscosity ([1]; 313.15 K): 0.671 ± 0.067 mPa·s
- viscosity ([1]; 318.15 K): 0.611 ± 0.061 mPa·s
- mass density ([1]; 318.15 K): 990.1 ± 1 kg/m3
- viscosity ([1]; 323.15 K): 0.559 ± 0.056 mPa·s
- mass density ([1]; 323.15 K): 987.9 ± 1 kg/m3
- viscosity ([1]; 328.15 K): 0.514 ± 0.052 mPa·s
- mass density ([1]; 328.15 K): 985.6 ± 1 kg/m3
- viscosity ([1]; 333.15 K): 0.474 ± 0.048 mPa·s
- mass density ([1]; 333.15 K): 983.2 ± 1 kg/m3
- viscosity ([1]; 338.15 K): 0.439 ± 0.044 mPa·s
- mass density ([1]; 338.15 K): 980.3 ± 1 kg/m3
- viscosity ([1]; 343.15 K): 0.408 ± 0.041 mPa·s
- mass density ([1]; 343.15 K): 978.1 ± 1 kg/m3

Further lines, results first:

- Molar enthalpy of transition or fusion ([2]; Crystal 1): 3.37 ± 0.263 kcal/mol
- Normal melting temperature ([3]; Crystal 1, DTA): 211.32 ± 0.41 °C
SMILES: CCCC[N+]1(C)CCOCC1.[Br-] [4-butyl-4-methylmorpholinium bromide]

- Molar enthalpy of transition or fusion ([2]; Crystal 1): 1.94 ± 0.263 kcal/mol
- Normal melting temperature ([3]; Crystal 1, DTA): 194 ± 0.41 °C
SMILES: CCCCC[N+]1(C)CCOCC1.[Br-] [4-methyl-4-pentylmorpholinium bromide]

- Molar enthalpy of transition or fusion ([2]; Crystal 1): 2.72 ± 0.263 kcal/mol
- Molar enthalpy of transition or fusion ([2]; Crystal 2): 0.55 ± 0.239 kcal/mol
- Normal melting temperature ([3]; Crystal 1, DTA): 180.79 ± 0.41 °C
- Triple point temperature ([3]; Crystal 2, DSC): 341.13 ± 0.77 K
SMILES: CCC[N+]1(C)CCOCC1.[Br-] [4-methyl-4-propylmorpholinium bromide]
